Assay results taken from patent US20100210649A1, “PYRIDAZINONES AND FURAN-CONTAINING COMPOUNDS” (Sloan-Kettering Institute for Cancer Research, priority 2006, published 2010).
Where “and” joins values, the source holds several entries; their conditions need not be identical. Equal values may be shown once. Read-outs that look alike come from different tables or passages of the source.

Columns and labels:
H1650 = assay: Non Small Cell Lung Cancer proliferation assay (Alamar Blue reduction), H1650; assay type: cell-based, human; conditions: Homo sapiens; for inhibition at 10 µM: NCI-H1650, primary screening, 10 μM compound in 1% DMSO (v/v), read-out: percentage inhibition H1650
Summary of the method: (§1)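 Human NSCLC cells were seeded at 250 cells/well with compound at a final 1% DMSO and treated for 48 hours at 37° C. 1% DMSO served as the high control.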

H3255 = assay: Non Small Cell Lung Cancer proliferation assay (Alamar Blue reduction), H3255; assay type: cell-based, human; conditions: for inhibition at 10 µM: NCI-H3255, primary screening, 10 μM compound in 1% DMSO (v/v), read-out: percentage inhibition H3255
Summary of the method: as §1

H1734 = assay: Non Small Cell Lung Cancer proliferation assay (Alamar Blue reduction), H1734; assay type: cell-based, human
Experimental: These cells have a doubling time of 1-2 days. All cell types are adherent and grow in colonies. The cells should be kept at a density between 50,000 cells/mL -500,000 cells/mL to provide for optimum growth and adequate nutrition. The cell line should be maintained at 37° C. in a humidified atmosphere with 5% CO2 in a sterile cell culture incubator.
Non Small Cell Lung Cancer Proliferation Assay.
High Controls for this assay are made by treating Non Small Cell Lung Cancer cells with 5 ul of 10% DMSO. [Final concentration in this assay is 1% DMSO].
Important Note: All compounds for testing in this assay should be done at the final concentration of 1% DMSO.
After addition, the cells are placed in cell culture incubator at 37° C. for 48 hours for complete treatment.
After drug treatment, cytotoxicity is measured by Alamar Blue reduction.
The cells are incubated for 48 hours at 37° C. to complete the Alamar Blue reduction.
The final step in the assay is to measure the amount of Alamar Blue reduction. […] The Alamar Blue fluorescence is measured at an excitation of 530 nm and emission of 590 nm.
For the NSCLC project, the cell based assay was screened against a small molecule library of approximately 200,000 compounds. The compound library is stored in our automated robotic freezer (Biophile) at −20° C. in 100% DMSO. Compound freeze and thaw cycles are kept to a minimum. […] This assay was performed on a fully automated linear track robotic platform (CRS F3 Robot System, Thermo Electron Corp., Ontario, Canada) utilizing several integrated peripherals for plate handling, liquid dispensing, and readout detection. […] The microplates are then placed at 37° C. for 48 hours to complete treatment of cells with compounds. Next, 5 ul of alamar blue was added using a liquid dispenser (Flexprop Precision Dispenser, Perkin Elmer, Mass., USA) and incubated for 48 hours at 37° C. The alamar blue prompt fluorescence was measured on Victor V (Victor^3 V, Perkin Elmer, Mass., USA) and output data files were loaded into ORIS (Oncology Research Informatics System, MSKCC, NY, USA), a screening data acquisition and analysis platform.
(§2) The dose response studies were done with the following standard procedure. First, the cells were counted and dispensed at 250 cells/well into 384-well microplates with compound. The cells were incubated for 48 hours at 37 C to complete treatment, and then alamar blue was added for an additional 48 hours. Finally, alamar blue reduction was measured and the data was loaded into ORIS, our data screening acquisition platform.

[1] = system: HPL1D (human peripheral lung epithelial) cell line; assay: Cell proliferation / dose response (Alamar Blue), HPL1D; assay type: cell-based; conditions: read-out: IC50 HPL1D
Experimental: WI-38: human lung fibroblast cell line. […] WT: wildtype; WT*: over-expressed wildtype. Dose response studies against 34 compounds from the pyridazinone and phenylfuran-carboxamide class were conducted. […] In addition, Tarceva was included in these dose response studies. The dose response studies were done with the following standard procedure. […] The cells were incubated for 48 hours at 37 C to complete treatment, and then alamar blue was added for an additional 48 hours. Finally, alamar blue reduction was measured and the data was loaded into ORIS, our data screening acquisition platform.

H820 = assay: Dose response study (Alamar Blue), H820; assay type: cell-based; conditions: Homo sapiens, read-out: IC50 H820
Experimental: (§3) Dose response studies against 34 compounds from the pyridazinone and phenylfuran-carboxamide class were conducted. […] In addition, Tarceva was included in these dose response studies.
as §2

PC9 = assay: Dose response study (Alamar Blue), PC9; assay type: cell-based; conditions: Homo sapiens, read-out: IC50 PC9
Experimental: as §3, §2

A549 = assay: Dose response study (Alamar Blue), A549; assay type: cell-based; conditions: Homo sapiens, read-out: IC50 A549
Experimental: as §3, §2

H23 = assay: Dose response study (Alamar Blue), H23; assay type: cell-based; conditions: Homo sapiens, read-out: IC50 H23
Experimental: as §3, §2

H460 = assay: Dose response study (Alamar Blue), H460; assay type: cell-based; conditions: Homo sapiens, read-out: IC50 H460
Experimental: as §3, §2

H2122 = assay: Dose response study (Alamar Blue), H2122; assay type: cell-based; conditions: Homo sapiens, read-out: IC50 H2122
Experimental: as §3, §2

[2] = NCI-H1650, 48 h, H1650, 12 point doubling dilution 10 uM to 5 nM, 48 h treatment, alamar blue additional 48 h, read-out: IC50 H1650
[3] = NCI-H1650, dose response 10 M to 5 nM, IC50, read-out: Dose Response (uM) H1650
[4] = Homo sapiens, NCI-H3255, 48 h, H3255, 12 point doubling dilution 10 uM to 5 nM, 48 h treatment, alamar blue additional 48 h, read-out: IC50 H3255
[5] = Homo sapiens, NCI-H3255, dose response 10 M to 5 nM, IC50, read-out: Dose Response (uM) H3255
[6] = Homo sapiens, NCI-H1734, H1734, 12 point doubling dilution 10 uM to 5 nM, 48 h treatment, alamar blue additional 48 h, read-out: IC50 H1734
[7] = Homo sapiens, NCI-H1734, read-out: Dose Response (uM) H1734
[8] = HPL1D, 12 point doubling dilution 10 uM to 5 nM, 48 h treatment, alamar blue additional 48 h
[9] = NCI-H820, H820, 12 point doubling dilution 10 uM to 5 nM, 48 h treatment, alamar blue additional 48 h
[10] = PC-9, PC9, 12 point doubling dilution 10 uM to 5 nM, 48 h treatment, alamar blue additional 48 h
[11] = A549, 12 point doubling dilution 10 uM to 5 nM, 48 h treatment, alamar blue additional 48 h
[12] = NCI-H23, H23, 12 point doubling dilution 10 uM to 5 nM, 48 h treatment, alamar blue additional 48 h
[13] = NCI-H460, H460, 12 point doubling dilution 10 uM to 5 nM, 48 h treatment, alamar blue additional 48 h
[14] = NCI-H2122, H2122, 12 point doubling dilution 10 uM to 5 nM, 48 h treatment, alamar blue additional 48 h

Structure (SMILES) | IC50 (H1650; [2]) | IC50 (H1650; [3]) | IC50 (H3255; [4]) | IC50 (H3255; [5]) | IC50 (H1734; [6]) | IC50 (H1734; [7]) | IC50 [1, 8] | IC50 (H820; [9]) | IC50 (PC9; [10]) | IC50 (A549; [11]) | IC50 (H23; [12]) | IC50 (H460; [13]) | IC50 (H2122; [14]) | further results
Cc1cc(C)cc(-n2ncc(Cl)c(Cl)c2=O)c1 [compound 257020] | 2.58 µM | 2.1 µM | 1.35 µM | 0.92 µM | 2.62 µM | 1.83 µM | 410 nM | 450 nM | 1550 nM | 2870 nM | 460 nM | 2930 nM | 2210 nM | 
O=c1c(Cl)c(Cl)cnn1-c1ccc(C(F)(F)F)cc1 [compound 267060] | 3.95 µM | 3.92 µM | 2.29 µM | 2.27 µM | 5.23 µM | 1.6 µM | 560 nM | 1480 nM | 3490 nM | 5310 nM | 1070 nM | 4260 nM | 6000 nM | 
CCc1cccc(-n2ncc(Cl)c(Cl)c2=O)c1 [compound 267062] | 1.91 µM | 2.48 µM | 1.51 µM | 1.5 µM | 2.89 µM | 1.75 µM | 380 nM | 450 nM | 1510 nM | 2810 nM | 390 nM | 2880 nM | 2550 nM | 
O=c1c(Cl)c(Cl)cnn1-c1cccc(C(F)(F)F)c1 [compound 176729] | 0.8 µM | 1.44 µM | 0.66 µM | 0.73 µM | 1.22 µM | 0.61 µM | 250 nM | 280 nM | 900 nM | 1190 nM | 230 nM | 1260 nM | 1500 nM | inhibition at 10 µM (H1650): 100%; inhibition at 10 µM (H3255; Homo sapiens): 115%
Cc1cccc(-n2ncc(Br)c(Br)c2=O)c1 [compound 267071] | 1.1 µM | 0.74 µM | 0.76 µM | 0.81 µM | 1.72 µM | 0.8 µM | 240 nM | 270 nM | 860 nM | 1620 nM | 260 nM | 1430 nM | 1260 nM | 
NCCCOc1cccc(-n2ncc(Br)c(Br)c2=O)c1 [compound 273634] | 0.51 µM | 1.36 µM | 0.99 µM | 1.11 µM | 1.23 µM | 0.93 µM | 350 nM | 290 nM | 970 nM | 1650 nM | 380 nM | 1470 nM | 1420 nM | 
COc1cccc(-n2ncc(Cl)c(Cl)c2=O)c1 [compound 267061] | 1.96 µM | 3.52 µM | 1.2 µM | 1.34 µM | 3.04 µM | 2.41 µM | 290 nM | 260 nM | 850 nM | 1760 nM | 280 nM | 1630 nM | 1200 nM | 
Cc1cccc(-n2ncc(Cl)c(Cl)c2=O)c1 [compound 104122, 4,5-dichloro-2-m-tolyl-2H-pyridazin-3-one] | 1.41 µM |  | 0.87 µM |  |  |  |  |  |  |  |  |  |  | inhibition at 10 µM (H1650): 48%; inhibition at 10 µM (H3255; Homo sapiens): 98%; IC50 (H3255; dose response 10 M to 5 nM, IC50, read-out: Dose Response (uM) H3255): 0.38 µM; IC50 (H1734; Homo sapiens, NCI-H1734, 48 h, H1734, 12 point doubling dilution 10 uM to 5 nM, 48 h treatment, alamar blue additional 48 h, read-out: IC50 H1734): 2.14 µM; IC50 (H1734; Homo sapiens, NCI-H1734, dose response 10 M to 5 nM, IC50, read-out: Dose Response (uM) H1734): 2.17 µM; IC50 (H1734; dose response 10 M to 5 nM, IC50, read-out: Dose Response (uM) H1734): 1.17 µM and 2.21 µM and 1.73 µM; IC50 ([1]; 48 h): 280 nM; IC50 (H820; NCI-H820, 48 h): 180 nM; IC50 (PC9; PC-9, 48 h): 650 nM; IC50 (A549; A549, 48 h): 1450 nM; IC50 (H23; NCI-H23, 48 h): 210 nM; IC50 (H460; NCI-H460, 48 h): 1560 nM; IC50 (H2122; NCI-H2122, 48 h): 1150 nM
O=c1c(Br)c(Br)cnn1-c1ccccc1 [compound 257015] | 0.92 µM | 1.14 µM | 0.76 µM | 0.62 µM | 1.62 µM | 0.87 µM | 300 nM | 220 nM | 710 nM | 1200 nM | 230 nM | 1300 nM | 1260 nM | 
COc1nn(-c2cccc(C)c2)c(=O)c(Cl)c1Cl [compound 257028] | 3.04 µM | 2.04 µM | 2.38 µM | 1.76 µM | 3.87 µM | 2.42 µM | 1930 nM | 770 nM | 2400 nM | 3760 nM | 680 nM | 5230 nM | 4040 nM | 
COc1cccc(-n2ncc(Br)c(Br)c2=O)c1 [compound 267083] | 1.08 µM | 1.06 µM | 0.65 µM | 0.35 µM | 1.36 µM | 1.31 µM | 220 nM | 200 nM | 740 nM | 1070 nM | 210 nM | 910 nM | 1150 nM | 
O=c1c(Cl)c(Cl)cnn1Cc1ccccc1 [compound 267069] | > 10 µM | > 10 µM | > 10 µM | 6.5 µM | > 10 µM | 6.86 µM | 5250 nM | 2570 nM | 6210 nM | 7390 nM | 2530 nM | > 10000 nM | 9040 nM | 
